Assay results from patent publication US12433953B2, “Compositions and methods related to tumor activated antibodies targeting EGFR and effector cell antigens” (Janux Therapeutics, Inc., priority 2021, dated 2025).
Read-outs that look alike come from different tables or passages of the source.

Target: EGFR Fab binding to the EGFR antigen
Test: ELISA competitive inhibition of EGFR Fab binding to EGFR antigen
Settings: for IC50: read-out: IC50
[1] = Table 21, peptide-8 alanine scanning mutants
[2] = Table 20, peptide-8 alanine scanning mutants

IC50 [1] | Fold shift in IC50 relative to Peptide-8 (IC50 Ala mutant/IC50 Peptide-8) (Table 20) | IC50 [2] | Fold shift in IC50 relative to Peptide-8 (IC50 Ala mutant/IC50 Peptide-8) (Table 21) | Structure (SMILES)
> 100 µM | – | – | – | CC[C@H](C)[C@@H]1NC(=O)[C@H](C)NC(=O)[C@H](CCCCN)NC(=O)[C@H](C)NC(=O)[C@H](C(C)C)NC(=O)[C@H](CC(=O)O)NC(=O)[C@H]([C@@H](C)CC)NC(=O)[C@H](Cc2c[nH]cn2)NC(=O)[C@H](CO)NC(=O)[C@H](CCCNC(=N)N)NC(=O)[C@@H](NC(=O)[C@@H]2CCCN2)CSSC[C@@H](C(=O)N[C@H](C(=O)O)C(C)C)NC1=O [Peptide-25]
– | 1.4 | 5.6 µM | – | CC[C@H](C)[C@@H]1NC(=O)[C@H](Cc2c[nH]cn2)NC(=O)[C@H](CO)NC(=O)[C@H](C)NC(=O)[C@@H](NC(=O)[C@@H]2CCCN2)CSSC[C@@H](C(=O)N[C@H](C(=O)O)C(C)C)NC(=O)[C@H]([C@@H](C)CC)NC(=O)[C@@H]2CCCN2C(=O)[C@H](CCCCN)NC(=O)[C@H](C)NC(=O)[C@H](C(C)C)NC(=O)[C@H](CC(=O)O)NC1=O [Peptide-18]
– | 2.8 | 11 µM | – | CC[C@H](C)[C@@H]1NC(=O)[C@H](C)NC(=O)[C@H](CO)NC(=O)[C@H](CCCNC(=N)N)NC(=O)[C@@H](NC(=O)[C@@H]2CCCN2)CSSC[C@@H](C(=O)N[C@H](C(=O)O)C(C)C)NC(=O)[C@H]([C@@H](C)CC)NC(=O)[C@@H]2CCCN2C(=O)[C@H](CCCCN)NC(=O)[C@H](C)NC(=O)[C@H](C(C)C)NC(=O)[C@H](CC(=O)O)NC1=O [Peptide-20]
– | 0.5 | 1.95 µM | – | CC[C@H](C)[C@@H]1NC(=O)[C@@H]2CCCN2C(=O)[C@H](CCCCN)NC(=O)[C@H](C)NC(=O)[C@H](C(C)C)NC(=O)[C@H](CC(=O)O)NC(=O)[C@H](C)NC(=O)[C@H](Cc2c[nH]cn2)NC(=O)[C@H](CO)NC(=O)[C@H](CCCNC(=N)N)NC(=O)[C@@H](NC(=O)[C@@H]2CCCN2)CSSC[C@@H](C(=O)N[C@H](C(=O)O)C(C)C)NC1=O [Peptide-21]
> 100 µM | – | – | – | CC[C@H](C)[C@@H]1NC(=O)[C@H](Cc2c[nH]cn2)NC(=O)[C@H](CO)NC(=O)[C@H](CCCNC(=N)N)NC(=O)[C@@H](NC(=O)[C@@H]2CCCN2)CSSC[C@@H](C(=O)N[C@H](C(=O)O)C(C)C)NC(=O)[C@H](C)NC(=O)[C@@H]2CCCN2C(=O)[C@H](CCCCN)NC(=O)[C@H](C)NC(=O)[C@H](C(C)C)NC(=O)[C@H](CC(=O)O)NC1=O [Peptide-26]
3.1 µM | – | – | 2.2 | CC[C@H](C)[C@@H]1NC(=O)[C@H](Cc2c[nH]cn2)NC(=O)[C@H](CO)NC(=O)[C@H](CCCNC(=N)N)NC(=O)[C@@H](NC(=O)[C@@H]2CCCN2)CSSC[C@@H](C(=O)N[C@@H](C)C(=O)O)NC(=O)[C@H]([C@@H](C)CC)NC(=O)[C@@H]2CCCN2C(=O)[C@H](CCCCN)NC(=O)[C@H](C)NC(=O)[C@H](C(C)C)NC(=O)[C@H](CC(=O)O)NC1=O [Peptide-27]
– | 24 | 93 µM | – | CC[C@H](C)[C@@H]1NC(=O)[C@H](Cc2c[nH]cn2)NC(=O)[C@H](C)NC(=O)[C@H](CCCNC(=N)N)NC(=O)[C@@H](NC(=O)[C@@H]2CCCN2)CSSC[C@@H](C(=O)N[C@H](C(=O)O)C(C)C)NC(=O)[C@H]([C@@H](C)CC)NC(=O)[C@@H]2CCCN2C(=O)[C@H](CCCCN)NC(=O)[C@H](C)NC(=O)[C@H](C(C)C)NC(=O)[C@H](CC(=O)O)NC1=O [Peptide-19]
> 100 µM | – | – | – | CC[C@H](C)[C@@H]1NC(=O)[C@H](Cc2c[nH]cn2)NC(=O)[C@H](CO)NC(=O)[C@H](CCCNC(=N)N)NC(=O)[C@@H](NC(=O)[C@@H]2CCCN2)CSSC[C@@H](C(=O)N[C@H](C(=O)O)C(C)C)NC(=O)[C@H]([C@@H](C)CC)NC(=O)[C@@H]2CCCN2C(=O)[C@H](C)NC(=O)[C@H](C)NC(=O)[C@H](C(C)C)NC(=O)[C@H](CC(=O)O)NC1=O [Peptide-24]
